For ten compounds, Binding results are on record in patent publication US12653895B2, “Therapeutic conjugates” (Totus Medicines Inc., priority 2019, dated 2026).

This experiment concerns PI3-kinase. Briefly: NanoBRET screening of ARCS in transfected HEK293 cells with washout (covalent binding to and inhibition of PI3-kinase). In kind it is cell-based. Conditions: NanoBRET binding assay; key headed Percent inhibition. On the procedure:
Human embryonic kidney 293-H (HEK 293, Gibco 293-H, #11631017) cell lines are maintained in Dulbecco's Modified Eagle Medium, high glucose, pyruvate (DMEM, Gibco, #11995065) supplemented with 10% fetal bovine serum (FBS, Gibco, #10082147) and 1× penicillin-streptomycin (100× solution, Gibco, #15140148) at 37° C. and 5% CO2 in a water-saturated incubator. Cell are trypsinized using 0.05% or 0.25% Trypsin-EDTA solution (Trypsin-EDTA, phenol red, Gibco, #25200056 (0.25%) or #25300054). Opti-MEM media supplemented with 10% fetal bovine serum (Opti-MEM I reduced serum media, no phenol red, Gibco, #11058021) is used for culturing cells overnight for NanoBRET readout experiments.
HEK293 cells are cultivated appropriately prior to assay. The medium from cell flask is removed via aspiration, washed 1× with PBS followed by aspiration, trypsinized, and cells are allowed to dissociate from the flask. Trypsin is neutralized using growth medium and cells are pelleted via centrifugation at 200×g for 5 minutes. The medium is aspirated and the cells are resuspended into a single cell suspension using Opti-MEM I supplemented with 10% FBS. The cell density is adjusted to 2×10^5/mL in Opti-MEM I supplemented with 10% FBS in a sterile, conical tube. The cells are transfected and aliquoted directly in a 96-well plate for the NanoBRET assay the next day, and therefore, the cells are cultured overnight in Opti-MEM. The cells are also transfected in bulk and dispensed into a 96-well plate to allow cells to adhere to the plate overnight, thereby enabling washout studies.
The lipid:DNA complexes are prepared as follows:
A 10 μg/mL solution of DNA is prepared in Opti-MEM without serum. This solution contains the following ratios of carrier DNA and DNA encoding NanoLuc fused to the biological target. Serial dilution steps may be warranted to accurately dilute the NanoLuc fusion DNA. Added, in order, the following reagents to a sterile polystyrene test tube: 1 mL of Opti-MEM without phenol red; 9.0 μg/mL of carrier DNA; 1.0 μg/mL of NanoLuc fusion DNA (for some targets, the amount is less). The reagents are mixed thoroughly.
30 μL of FuGENE HD is added into each mL of DNA mixture to form lipid:DNA complex. […] It is mixed by pipetting up and down 5-10 times and incubated at room temperature for 20 minutes to allow complexes to form. 1 part (e.g. 1 mL) of lipid:DNA complex is mixed with 20 parts (e.g. 20 mL) of HEK293 cells in suspension at 2×10^5/mL and mixed gently by pipetting up and down 5 times in a sterile, conical tube. Larger or smaller bulk transfections are scaled accordingly, using this ratio. […] is dispensed into a sterile, tissue-culture treated 96-well plate (20,000 cells/well), and incubated at least 16 hours to allow expression. The cells are incubated in a 37° C.+5% CO2 incubator for >16 hrs. A serially diluted inhibitor or test compound is prepared at 100× final concentration in 100% DMSO. The serially diluted inhibitor stock is prepared in PCR plates. 1 μL per well of 100× serially diluted inhibitor/test compound is added to the cells in 96-well plates that have been transiently transfected overnight and mixed by tapping the plate by hand. The plate is incubated at 37° C.+5% CO2 incubator overnight. A 1× solution of substrate mix (500× stock) and appropriate concentration of tracer is prepared in Opti-Mem. The cells are washed by setting a plate washer to the 96 well plate 5× in PBS pH 7.4 by adding 200 μL PBS each time. The cells are incubated at 37° C. for 2 hours. […], of the 1× Substrate-Tracer solution is added and the 96 well plate is gently tapped to mix. The plate on plate reader is read every hour for the next 6 hours. The binding assays of some ARCS are shown below. Compound 1-XXXII formed a covalent bond with PI3-kinase from about 5% to 20%. ARCS selected from the group consisting of Compounds 1-101, 1-102, 1-113, 1-114, 1-119, 1-120, 1-125 and 1-126 formed a covalent bond with PI3-kinase from about 80% to 100%. […]
For orientation: Bioluminescence resonance energy transfer reports proximity on the nanometre scale.

In the case of `C=CC(=O)CCC(=O)N1CCN(Cc2cc3c(N4CCOCC4)nc(-c4cnc(NC(=O)OC)cc4C(F)(F)F)nn3c2)CC1` [Compound 1-101], the Binding entry is given as “+++ (>80%)”.

On to `C=CC(=O)NCC(=O)N1CCN(Cc2cc3c(N4CCOCC4)nc(-c4cnc(NC(=O)OC)cc4C(F)(F)F)nn3c2)CC1` [Compound 1-102], for which the Binding entry was “+++ (>80%)”.

`COC(=O)Nc1cc(C(F)(F)F)c(-c2nc(N3CCOCC3)c3cc(CN4CCN(C(=O)CCC(=O)C=C(C)C)CC4)cn3n2)cn1` [Compound 1-113]: the Binding entry is on record as “+++ (>80%)”.

Take `COC(=O)Nc1cc(C(F)(F)F)c(-c2nc(N3CCOCC3)c3cc(CN4CCN(C(=O)CNC(=O)C=C(C)C)CC4)cn3n2)cn1` [Compound 1-114]: the Binding entry is “+++ (>80%)”.

`COC(=O)Nc1cc(C(F)(F)F)c(-c2nc(N3CCOCC3)c3cc(CN4CCN(C(=O)CCC(=O)/C=C/CN(C)C)CC4)cn3n2)cn1` [Compound 1-119]: the Binding result is “+++ (>80%)”.

On to `COC(=O)Nc1cc(C(F)(F)F)c(-c2nc(N3CCOCC3)c3cc(CN4CCN(C(=O)CNC(=O)/C=C/CN(C)C)CC4)cn3n2)cn1` [Compound 1-120], for which the Binding result is listed as “+++ (>80%)”.

Turning to `CC#CC(=O)CCC(=O)N1CCN(Cc2cc3c(N4CCOCC4)nc(-c4cnc(NC(=O)OC)cc4C(F)(F)F)nn3c2)CC1` [Compound 1-125], the Binding result is “+++ (>80%)”.

For `CC#CC(=O)NCC(=O)N1CCN(Cc2cc3c(N4CCOCC4)nc(-c4cnc(NC(=O)OC)cc4C(F)(F)F)nn3c2)CC1` [Compound 1-126], the Binding entry is listed as “+++ (>80%)”.

On to `C=CC(=O)Nc1ccc(C(=O)N2CCN(Cc3cc4c(N5CCOCC5)nc(-c5cnc(NC(=O)OC)cc5C(F)(F)F)nn4c3)CC2)cc1` [Compound 1-171], for which the Binding entry was “++ (50-80%)”.

Turning to `C=CC(=O)Nc1ccc(CCNCc2cc3c(N4CCOCC4)nc(-c4cnc(NC(=O)OC)cc4C(F)(F)F)nn3c2)cc1` [Compound 1-172], the Binding entry is listed as “++ (50-80%)”.
